# According to patent US9856298B2 (priority 2011, dated 2018):
# Like-named read-outs stand apart in the source and are kept apart here. Numbered stars: 1 amine (or outer) side, 2 acyl side, 3 side chain; on linkers, the order of the positions; unused ones are H or OH. Square brackets hold non-standard residues; d marks the D form. Primed or numbered codes have the meaning given here. Peptide text beside a SMILES is read from it. * marks the point of attachment. δOrn(α-TMG) = CN(C)C(=N[C@@H](CCCN[*:1])C(=O)[*:2])N(C)C; Guan″ = guanidino group at the N-terminus, N=C(N)*; tPEG5000 = PEG of 5000 linked via thiol group; Guan = N-guanidino (N-terminal), N=C(N)*; Hyp = O=C(O)[C@@H]1C[C@@H](O)CN1; Tle = CC(C)(C)[C@H](N)C(=O)O; Orn = NCCC[C@H](N)C(=O)O
# Legend:
# [1] = test system: Escherichia coli strain BL21AI; experiment: Minimum inhibitory concentration in 1% TSB; type: cell-based; settings: for MIC in TSB: E. coli BL21AI, 1% TSB, 20 hours at 37° C.
# Experimental: To that end, the peptides were dissolved in water and diluted in a two-fold dilution series with 1% aqueous soybean medium (TSB) in sterile 96-well plates (Greiner Bio-One GmbH) from 128 μg/ml in twelve dilution steps to 62.5 ng/ml. Overnight cultures of Escherichia coli strain BL21AI were adjusted with 1% TSB to about […] colony forming units per ml. In each case 50 μl of peptide solution per well were then mixed with in each case 50 μl of the bacteria solution, in order to achieve a starting concentration of 4×10^5 bacteria per well. After incubation for 20 hours at 37° C., the absorption at 595 nm was determined (microplate reader, TECAN Trading AG).
# mouse serum (100%) = settings: 37° C., up to 6 hours
# [2] = mouse; for uncleaved peptide remaining after the indicated time (instead of half-life): serum, 15 µg/ml
# Experimental: 30 μl of a 1 mg/ml peptide solution were diluted with 120 μl of water and, after addition of 50 of serum, incubated at 37° C. for 0 hours, 0.5 hour, 1 hour, 2 hours or 4 hours. Alternatively, the peptide derivatives having a starting concentration of 3 mg/ml were diluted with serum to a final concentration of 15 μg/ml. According to the stability of the peptides, the samples were analysed at the times mentioned above or after 0 hours, 4 hours and 6 hours. The serum proteins were precipitated by addition of 50 μl of 15% TCA, and the supernatant was neutralised with 25 μl of 1 mol/l NaOH. The samples were made up to 250 μl with 5% B, 230 μl of the solution were transferred into a HPLC vial, and 220 μl were injected.
# RP-HPLC analysis was carried out with a linear acetonitrile gradient (Biosolve BV, Valkenswaard, Netherlands) in the presence of 0.1% trifluoroacetic acid (TFA, UV grade, Fluka Chemie GmbH, Buchs, Switzerland) as ion-pair reagent. The fractions were co-crystallised with α-cyanohydroxycinnamic acid (Bruker Daltonik GmbH; Bremen, Germany) as matrix (4 mg/ml in 60% acetonitrile in 0.1% aqueous TFA) and analysed with a tandem mass spectrometer (MALDI-TOF/TOF-MS, 4700 Proteomics Analyzer; Applied Biosystems GmbH, Weiterstadt, Germany) in positive-ion reflector mode. The amount of intact peptides and their degradation products or metabolites could thus be identified and quantified at the individual times. 25% aqueous mouse serum, which was analysed in parallel for the same time intervals, was used as control.
Compound,MIC in TSB [1] [µM],cleaved bond (mouse serum (100%)),also measured
CC[C@H](C)[C@H](NC(=O)[C@H](Cc1ccc(O)cc1)NC(=O)[C@@H](NC(=O)[C@@H]1CCCN1C(=O)[C@H](CCCNC(=N)N)NC(=O)[C@H](CC(N)=O)NC(=O)[C@H](CC(N)=O)NC(=O)[C@H](CCCNC(=O)CNC(=O)[C@@H](N)CO)N=C(N(C)C)N(C)C)C(C)C)C(=O)N1CCC[C@H]1C(=O)N[C@@H](CCCNC(=N)N)C(=O)N1CCC[C@H]1C(=O)N[C@@H](CCCNC(=N)N)C(=O)N1CCC[C@H]1C(=O)N1CCC[C@H]1C(=O)N[C@@H](Cc1c[nH]cn1)C(=O)N1CCC[C@H]1C(=O)N[C@@H](CCCNC(=N)N)C(=O)N[C@@H](CC(C)C)C(=O)O [Api 137 (SG)] (H-SG[δOrn(α-TMG)]NNRPVYIPRPRPPHPRL-OH),0.2,,Effect of peptide linker or remaining linker residues on the MIC ([1]; compared with the unmodified peptide): does not increase the MIC or increases it only insignificantly
CC(C)C[C@H](NC(=O)[C@H](Cc1ccc(O)cc1)NC(=O)[C@@H]1CCCN1C(=O)[C@@H]1CCCN1C(=O)[C@H](CCCCN)NC(=O)[C@H](CC(=O)O)NC(=O)[C@@H](N)C(C)C)C(=O)N1CCC[C@H]1C(=O)N[C@@H](CCCNC(=N)N)C(=O)N1CCC[C@H]1C(=O)N[C@@H](CCCNC(=N)N)C(=O)N1CCC[C@H]1C(=O)N1C[C@H](O)C[C@H]1C(=O)N[C@@H](CCCNC(=N)N)C(=O)N1C[C@H](O)C[C@H]1C(=O)N[C@H](C(=O)N[C@@H](Cc1ccc(O)cc1)C(=O)N[C@@H](CC(N)=O)C(=O)N[C@@H](CCCN)C(N)=O)C(C)(C)C [Onc 110] (H-VDKPPYLPRPRP[Hyp]R[Hyp][Tle]YN[Orn]-NH2),6.9,,
Guan-O(sPEG^5000-GARSG)NNRPVYIPRPRPPHPRL-OH ({Guan″}-[Orn]NNRPVYIPRPRPPHPRL-OH; not fully specified (residue 1)) [Api 137 (sPEG^5000-GARSG)],3.7,,
Guan-O(sPEG^20000-GARSG)NNRPVYIPRPRPPHPRL-OH ({Guan″}-[Orn]NNRPVYIPRPRPPHPRL-OH; not fully specified (residue 1)) [Api 137 (sPEG^20000-GARSG)],10.2,,
Guan-ONO(sPEG^750-GAARSG)RPVYIPRPRPPHPRL-OH,,R-S,
Guan-ONO(sPEG^750-GAARSG)RPVYIPRPRPPHPRL-OH ({Guan″}-[Orn]N[Orn]RPVYIPRPRPPHPRL-OH; not fully specified (residue 3)) [Api 301 (sPEG^750-GAARSG)],5.6,,Half-life (t1/2) in serum [2]: 55 min
Guan-ONO(sPEG^750-GARSG)RPVYIPRPRPPHPRL-OH,,R-S,
Guan-ONO(sPEG^750-GRSG)RPVYIPRPRPPHPRL-OH,,R-S,
Guan-ONO(sPEG^750-GRSG)RPVYIPRPRPPHPRL-OH ({Guan″}-[Orn]N[Orn]RPVYIPRPRPPHPRL-OH; not fully specified (residue 3)) [Api 301 (sPEG^750-GRSG)],1.5,,Half-life (t1/2) in serum [2]: 30 min
Guan-ONO(tPEG^750-GAARSG)RPVYIPRPRPPHPRL-OH,,R-S,
Guan-ONO(tPEG^750-GAARSG)RPVYIPRPRPPHPRL-OH ({Guan″}-[Orn]N[Orn]RPVYIPRPRPPHPRL-OH; not fully specified (residue 3)) [Api 301 (tPEG^750-GAARSG)],2.8,,Half-life (t1/2) in serum [2]: 50 min
Guan-ONO(tPEG^750-GARSG)RPVYIPRPRPPHPRL-OH,,R-S,
Guan-ONO(tPEG^750-GARSG)RPVYIPRPRPPHPRL-OH ({Guan″}-[Orn]N[Orn]RPVYIPRPRPPHPRL-OH; not fully specified (residue 3)) [Api 301 (tPEG^750-GARSG)],1.5,,Half-life (t1/2) in serum [2]: 45 min
Guan-ONO(tPEG^750-GRSG)RPVYIPRPRPPHPRL-OH,,R-S,
Guan-ONO(tPEG^750-GRSG)RPVYIPRPRPPHPRL-OH (Guan-[Orn]N[Orn]RPVYIPRPRPPHPRL-OH; not fully specified (residue 3)) [Api 301 (tPEG^750-GRSG)],2.9,,Half-life (t1/2) in serum [2]: 55 min
Guan-ONO(tPEG^5000-GAARSG)RPVYIPRPRPPHPRL-OH,,R-S,
Guan-ONO(tPEG^5000-GAARSG)RPVYIPRPRPPHPRL-OH ({Guan″}-[Orn]N[Orn]RPVYIPRPRPPHPRL-OH; not fully specified (residue 3)) [Api 301 (tPEG^5000-GAARSG)],>47.5,,uncleaved peptide remaining after the indicated time (instead of half-life) ([2]; 5 h): 78%
Guan-ONO(tPEG^5000-GARSG)RPVYIPRPRPPHPRL-OH,,R-S,
Guan-ONO(tPEG^5000-GARSG)RPVYIPRPRPPHPRL-OH ({Guan″}-[Orn]N[Orn]RPVYIPRPRPPHPRL-OH; not fully specified (residue 3)) [Api 301 (tPEG^5000-GARSG)],9.2,,uncleaved peptide remaining after the indicated time (instead of half-life) ([2]; 6 h): 62%
Guan-ONO(tPEG^5000-GRSG)RPVYIPRPRPPHPRL-OH,,R-S,
Guan-ONO(tPEG^5000-GRSG)RPVYIPRPRPPHPRL-OH ({Guan″}-[Orn]N[Orn]RPVYIPRPRPPHPRL-OH; not fully specified (residue 3)) [Api 301 (tPEG^5000-GRSG)],>38,,uncleaved peptide remaining after the indicated time (instead of half-life) ([2]; 6 h): 75%
Guan-OO(sPEG^750-GAARSG)NRPVYIPRPRPPHPRL-OH,,R-S,

Compound,MIC in TSB [1] [µM],cleaved bond (mouse serum (100%)),also measured
Guan-OO(sPEG^750-GAARSG)NRPVYIPRPRPPHPRL-OH (Guan-[Orn][Orn]NRPVYIPRPRPPHPRL-OH; not fully specified (residue 2)) [Api 300 (sPEG^750-GAARSG)],2.8,,Half-life (t1/2) in serum [2]: 45 min
Guan-OO(sPEG^750-GARSG)NRPVYIPRPRPPHPRL-OH,,R-S,
Guan-OO(sPEG^750-GRSG)NRPVYIPRPRPPHPRL-OH,,R-S,
Guan-OO(tPEG^750-GAARSG)NRPVYIPRPRPPHPRL-OH,,R-S,
Guan-OO(tPEG^750-GAARSG)NRPVYIPRPRPPHPRL-OH (Guan-[Orn][Orn]NRPVYIPRPRPPHPRL-OH; not fully specified (residue 2)) [Api 300 (tPEG^750-GAARSG)],2.8,,Half-life (t1/2) in serum [2]: 35 min
Guan-OO(tPEG^750-GARSG)NRPVYIPRPRPPHPRL-OH,,R-S,
Guan-OO(tPEG^750-GARSG)NRPVYIPRPRPPHPRL-OH (Guan-[Orn][Orn]NRPVYIPRPRPPHPRL-OH; not fully specified (residue 2)) [Api 300 (tPEG^750-GARSG)],1.5,,Half-life (t1/2) in serum [2]: 45 min
Guan-OO(tPEG^750-GRSG)NRPVYIPRPRPPHPRL-OH,,R-S,
Guan-OO(tPEG^750-GRSG)NRPVYIPRPRPPHPRL-OH (Guan-[Orn][Orn]NRPVYIPRPRPPHPRL-OH; not fully specified (residue 2)) [Api 300 (tPEG^750-GRSG)],2.9,,Half-life (t1/2) in serum [2]: 40 min
Guan-OO(tPEG^5000-GAARSG)NRPVYIPRPRPPHPRL-OH,,R-S,
Guan-OO(tPEG^5000-GAARSG)NRPVYIPRPRPPHPRL-OH (Guan-[Orn][Orn]NRPVYIPRPRPPHPRL-OH; not fully specified (residue 2)) [Api 300 (tPEG^5000-GAARSG)],25.4,,uncleaved peptide remaining after the indicated time (instead of half-life) ([2]; 6 h): 76%
Guan-OO(tPEG^5000-GARSG)NRPVYIPRPRPPHPRL-OH,,R-S,
Guan-OO(tPEG^5000-GRSG)NRPVYIPRPRPPHPRL-OH,,R-S,
Guan-OO(tPEG^5000-GRSG)NRPVYIPRPRPPHPRL-OH (Guan-[Orn][Orn]NRPVYIPRPRPPHPRL-OH; not fully specified (residue 2)) [Api 300 (tPEG^5000-GRSG)],>44.8,,uncleaved peptide remaining after the indicated time (instead of half-life) ([2]; 6 h): 75%
sPEG^750-GAR-VDKPPYLPRPRPHypRHypTleYNO-NH2,,R-V,
sPEG^750-GAR-VDKPPYLPRPRPPROIYNO-NH2,,R-V,
tPEG^750-GAR-VDKPPYLPRPRPHypRHypTleYNO-NH2,,R-V,
tPEG^750-GAR-VDKPPYLPRPRPHypRHypTleYNO-NH2 (tPEG750-GARVDKPPYLPRPRP[Hyp]R[Hyp][Tle]YN[Orn]-NH2; not fully specified) [tPEG^750-GAR-Onc 110],48.4,,uncleaved peptide remaining after the indicated time (instead of half-life) ([2]; 6 h): 64%
tPEG^750-GAR-VDKPPYLPRPRPPROIYNO-NH2,,R-V,
tPEG^5000-GAR-VDKPPYLPRPRPHypRHypTleYNO-NH2 (tPEG5000-GARVDKPPYLPRPRP[Hyp]R[Hyp][Tle]YN[Orn]-NH2) [tPEG^5000-GAR-Onc 110],,,uncleaved peptide remaining after the indicated time (instead of half-life) ([2]; 6 h): 96%
tPEG^5000-GAR-VDKPPYLPRPRPPROIYNO-NH2,,R-V,
